1 compound from patent US8628931B2, “mTOR pathway theranostic” (George Mason Intellectual Properties, Inc., priority 2005, dated 2014) can be followed below.

Format in all cases: in vivo, mouse
For assay [1], the system named is Rh30 alveolar rhabdomyosarcoma xenograft. The assay can be described thus: CCI-779 suppression of Rh30 rhabdomyosarcoma xenograft tumor growth. Conditions: Rh30 orthotopic xenograft, SCID beige mice, 20 mg/kg IP every 3 days for 30 days, calipers. The procedure: (§1) (FIG. 6A) Time dependent CCI-779 inhibition of phosphorylation of mTOR pathway downstream substrates within tumor tissue in a xenograft treatment model. […] (FIG. 6B) CCI-779 inhibited tumor growth in Rh30 and RD mouse xenograft models. 2×10^6 cells in 0.2 mL total volume per mouse, from either Rh30 alveolar or RD embryonal cell lines, were injected orthotopically into the left hind leg gastrocnemius muscle of a SCID beige murine model. After 1 week, mice were assigned to control (n=8) or CCI-779 treatment groups (n=8). Tumor volume, as measured with calipers, was less in the CCI-779 treatment group as compared to the vehicle alone for both the Rh30 and RD xenografts --▴-- RD control, -▪- Rh30 plus CCI-779, -- ♦-- Rh30 control --X- RD plus CCI-779, (RD p=0.00008; Rh30 p=0.0002, Student's t-test). (FIG. 6C) CCI-779 was administered at 20 mg/kg/IP every 3 days for 30 days. Protein extracts from Rh30 and RD mouse xenograft tumors or uninvolved muscle were treated with CCI-779 or vehicle for 30 days and analyzed by Western blotting for S6 and 4EBP1 phosphorylation.
(§2) 5. In vivo xenograft tumor model. […] Tumor growth was measured every 3 days with calipers, and tumor volume was calculated by the formula V (mm^3)=a×b^2, where a is the longest tumor axis, and b is the shortest tumor axis. […]

For assay [2], the system named is RD embryonal rhabdomyosarcoma xenograft. The assay can be described thus: CCI-779 suppression of RD rhabdomyosarcoma xenograft tumor growth. Conditions: RD orthotopic xenograft, SCID beige mice, 20 mg/kg IP every 3 days for 30 days, calipers. The procedure: as §1, §2
In assay [3] the test system is mTOR pathway substrates pS6 Ser235/236 and 4EBP1 Thr70. Nature of the assay: Time dependent inhibition of phosphorylation of mTOR pathway downstream substrates in xenograft treatment model (FIG. 6A). Conditions: non-involved muscle and tumor tissue, compared to actin. The procedure: as §1, §2
Assay [4] concerns mTOR downstream targets 4EBP1 and S6. Nature of the assay: Western blotting for S6 and 4EBP1 phosphorylation, Rh30 xenograft tumors or uninvolved muscle. The procedure:
as §1, §2
(In general: A western blot detects proteins with antibodies after separation by electrophoresis.)

Assay [5] shares this test system. Nature of the assay: Western blotting for S6 and 4EBP1 phosphorylation, RD xenograft tumors or uninvolved muscle. The procedure:
as §1, §2

SMILES strings stand for the structures.

Turning to `CO[C@H]1C[C@@H]2CC[C@@H](C)[C@@](O)(O2)C(=O)C(=O)N2CCCC[C@H]2C(=O)O[C@H]([C@H](C)C[C@@H]2CC[C@@H](OC(=O)C(C)(CO)CO)[C@H](OC)C2)CC(=O)[C@H](C)/C=C(\C)[C@@H](O)[C@@H](OC)C(=O)[C@H](C)C[C@H](C)/C=C/C=C/C=C/1C` [CCI-779, 40-[3-hydroxy(hydroxymethyl)methylpropanoate]-rapamycin], the “Tumor volume / tumor growth compared to vehicle alone” value in assay [1] is “less and profoundly reduced the growth”; in assay [2], “less and profoundly reduced the growth”. Further, the “Phosphorylation of 4EBP1 Thr70” value in assay [3] is listed as “inhibited phosphorylation”. For the same compound, the “Phosphorylation of pS6 Ser235/236” value in assay [3] was “inhibited phosphorylation”. For the same compound, the “Phosphorylation of mTOR downstream targets (4EBP1 and S6)” value in assay [4] (Rh30 alveolar xenograft derived tumors) and in assay [5] (RD embryonal xenograft derived tumors) was “inhibited the expected phosphorylation” each time. Further, the “Phosphorylation of 4EBP1” value is “suppresses phosphorylation” in assay [4] (Rh30 muscle and tumor cells, 20 mg/kg IP every 3 days for 30 days, Western blot); “suppresses phosphorylation” in assay [5] (RD muscle and tumor cells, 20 mg/kg IP every 3 days for 30 days, Western blot).
